Results as given in patent publication US8394809B2, “Phenoxy-substituted pyrimidines as opioid receptor modulators” (priority 2009, dated 2013).
Where “and” joins values, the source holds several entries; their conditions need not be identical. Equal entries are not always repeated. Where two headings read alike, the source gives them in different places.

What was measured:
delta opioid receptor [1] = target: T1, delta opioid receptor (Mus musculus, UniProt P32300); assay: [35S]GTPγS binding assay in NG108-15 cell membranes (delta opioid functional assay); assay type: biochemical; settings: for inhibition at 10 µM: read-out: GTPγS δ-opioid receptor % Inh @10 μM, 10 μM
T1 construct: NG108-15 cell membranes were purchased from Applied Cell Sciences (Rockville, Md.); host or cells: NG108-15 cell membranes (purchased)

delta opioid receptor [2] = target: T1, delta opioid receptor; assay: as above; assay type: biochemical; settings: for GTPγS δ-Rel Efficacy @200 nM: 200 nM compound, relative to calculated max of SNC80 dose response
Method: Methods: NG108-15 cell membranes were purchased from Applied Cell Sciences (Rockville, Md.). 5 mg/mL of membrane protein was suspended in 10 mM TRIS-HCl pH 7.2, 2 mM EDTA, 10% sucrose. Membranes were maintained at 4-8° C. A 1 mL volume of membranes was added into 10 mL cold binding assay buffer. The assay buffer contained 50 mM Tris, pH 7.6, 5 mM MgCl2, 100 mM NaCl, 1 mM DTT and 1 mM EGTA. The membrane suspension was homogenized twice with a Polytron, and centrifuged at 3000 rpm for 10 min. The supernatant was then centrifuged at 18,000 rpm for 20 min. Ten mL assay buffer was added into the pellet containing tube. The pellet and buffer were mixed with a Polytron.
Incubation procedure: The pellet membranes (75 μg/mL) were preincubated with SPA (10 mg/mL) at 25° C. for 45 min in the assay buffer. […] 200 nM of receptor agonists was used to stimulate [^35S]-GTPγS binding. The basal binding was tested in the absence of agonists and non-specific binding was tested in the presence of 10 μM unlabeled GTPγS.
Data % of Basal=(stimulated−non specific)*100/(basal−non specific). Relative Efficacy of a compound at 200 nM=(% of Basal of test compound at 200 nM)/(Calculated Max of SNC80 dose response. Curve in prism).

mu opioid receptor = target: T2, mu opioid receptor (Rattus norvegicus, UniProt P33535); assay: Rat brain mu opioid receptor binding assay
T2 construct: the forebrains were homogenized in Tris buffer in a Teflon®-glass homogenizer; from tissue; host or cells: forebrain of male Wistar rats, particulate membrane preparation
Method: (§1) Procedure: Male, Wistar rats (150-250 g, VAF, Charles River, Kingston, N.Y.) were killed by CO2, and their brains were removed and placed immediately in ice cold Tris HCl buffer (50 mM, pH 7.4). The forebrains were separated from the remainder of the brain by a coronal transection, beginning dorsally at the colliculi and passing ventrally through the midbrain-pontine junction. After dissection, the forebrains were homogenized in Tris buffer in a Teflon®-glass homogenizer. The homogenate was diluted to a concentration of 1 g of forebrain tissue per 80 mL Tris and centrifuged at 39,000×g for 10 min. The pellet was resuspended in the same volume of Tris buffer containing 5 mM MgCl2 with several brief pulses from a Polytron homogenizer. This particulate preparation was used for the mu opioid binding assays. Following incubation with the mu selective peptide ligand, ˜0.8 nM [^3H]DAMGO, at 25° C. for 2.5 h in a 96-well plate with total assay volume of 1 mL, the plate contents were filtered through Wallac filtermat B sheets on a Tomtec 96-well harvester. […] To each sample area 2×40 μL of Betaplate Scint scintillation fluid (LKB) was added and the radioactivity was quantifed on a LKB (Wallac) 1205 BetaPlate liquid scintillation counter.
(§2) Analysis: The data from the scintillation counter was used to calculate either the % inhibition compared to control binding (when only a single concentration of test compound was evaluated) or a Ki value (when a range of concentrations was tested). Percent inhibition was calculated as: [(total dpm−test compound dpm)/(total dpm-nonspecific dpm)]*100. Kd and Ki values were calculated using GraphPad PRISM data analysis program.

delta opioid receptor [3] = target: T3, delta opioid receptor (Rattus norvegicus, UniProt P33533); assay: Rat brain delta opioid receptor binding assay
T3 construct: the forebrains were homogenized in Tris buffer in a Teflon®-glass homogenizer; from tissue; host or cells: forebrain of male Wistar rats, particulate membrane preparation
Method: as §1, with “delta” for “mu”, “ligand ˜4” for “ligand, ˜0.8”, “[^3H]DPDPE or 0.25 nM [^3H]naltrindole” for “[^3H]DAMGO,”, “total” for “total assay”, “2×50” for “2×40”, “quantified” for “quantifed”
as §2

delta opioid receptor [4] = target: T1, delta opioid receptor; assay: NG108-15, 24-well delta opioid receptor binding assay; settings: NG108-15 cell membranes, ~0.2 nM [3H]Naltrindole; read-out: δ-binding NG108 cell membrane Ki
Method: Methods: NG108-15 cell membranes were purchased from Applied Cell Sciences (Rockville, Md.). 5 mg/mL of membrane protein was suspended in 10 mM TRIS-HCl pH 7.2, 2 mM EDTA, 10% sucrose. With several brief pulses from a Polytron homogenizer, each vial was homogenized in 5 mls of 50 mM Tris Buffer, pH 7.4. The homogenate was diluted in 50 mM Tris Buffer containing 5 mM MgCl2 to 330 ug/ml in the working solution for a final concentration of 133 ug/well. This particulate preparation was used for the 24-well delta opioid binding assay.
Following incubation with the delta selective ligand ˜0.2 nM [^3H]Naltrindole at 25° C. for 2.5 h in a 24-well plate with total volume of 1 mL, the plate contents were filtered through a UniFilter24, GF/B. This plate was presoaked in 0.3% PEI and filtered through a 24-well Harvester. The UniFilter24 was rinsed three times with 2 mL of 10 mM HEPES (pH 7.4), and dried in an oven at 37° C. for 1.5 hours. To each well, was added 150 μL of Scint0 (PerkinElmer, Cat#6013611). The plates were then read on a TopCount.
Analysis: The data from the scintillation counter were used to calculate either the % inhibition compared to control binding (when only a single concentration of test compound was evaluated) or a Ki value (when a range of concentrations was tested). Non-specific binding (N.S.—1 mM Naloxone) is used as the negative control, while the Total Binding (T.B.—Membrane and ligand only) is used as the positive control. If one concentration is screened, the % inhibition is calculated as (cpms of total binding minus cpms of compound) divided by (cpms of T.B. minus cpms of N.S). The triplicate % Inhibitions are averaged and reported. If multiple concentrations are generated, the values are analyzed using the one-site binding non-linear regression program in Prism to determine Ki values. The bottom and top values are globally shared. The triplicate Kis are then averaged and reported.

[5] = target: T4, mu opioid receptor (CHO-hMOR cell membranes) (Homo sapiens, UniProt P35372); assay: [35S]GTPγS binding assay in CHO-hMOR cell membranes (mu opioid functional assay); assay type: biochemical
T4 construct: host or cells: CHO cells (membranes purchased)

[6] = read-out: GTPγS δ-opioid receptor EC50
[7] = rat forebrain membranes, ~0.8 nM [3H]DAMGO, read-out: μ-binding Ki
[8] = rat forebrain membranes, 0.25 nM [3H]naltrindole, read-out: δ-binding (Naltrindole ligand) Ki

T2 sequence (P33535 whole entry): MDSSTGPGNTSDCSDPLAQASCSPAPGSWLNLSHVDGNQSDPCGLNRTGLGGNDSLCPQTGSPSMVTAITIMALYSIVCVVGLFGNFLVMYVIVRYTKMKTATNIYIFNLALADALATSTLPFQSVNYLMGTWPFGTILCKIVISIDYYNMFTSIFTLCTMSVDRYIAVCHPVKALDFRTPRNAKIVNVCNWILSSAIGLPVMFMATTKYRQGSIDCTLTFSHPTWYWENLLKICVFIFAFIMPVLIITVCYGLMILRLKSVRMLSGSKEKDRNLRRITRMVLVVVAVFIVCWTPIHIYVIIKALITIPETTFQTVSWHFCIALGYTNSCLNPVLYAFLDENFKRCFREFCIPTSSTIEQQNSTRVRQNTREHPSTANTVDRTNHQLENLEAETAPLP
T1 sequence (P32300 whole entry): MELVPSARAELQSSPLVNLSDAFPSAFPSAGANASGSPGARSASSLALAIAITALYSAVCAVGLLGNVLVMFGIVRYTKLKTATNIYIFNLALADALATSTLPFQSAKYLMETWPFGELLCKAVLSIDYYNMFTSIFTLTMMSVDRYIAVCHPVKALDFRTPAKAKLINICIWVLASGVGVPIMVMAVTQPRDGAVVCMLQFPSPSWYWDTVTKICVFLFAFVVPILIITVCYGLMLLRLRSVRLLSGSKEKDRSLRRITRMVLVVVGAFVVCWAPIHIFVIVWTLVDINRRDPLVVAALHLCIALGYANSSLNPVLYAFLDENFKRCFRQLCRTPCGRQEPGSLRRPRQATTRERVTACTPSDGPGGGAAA
T3 sequence (P33533 whole entry): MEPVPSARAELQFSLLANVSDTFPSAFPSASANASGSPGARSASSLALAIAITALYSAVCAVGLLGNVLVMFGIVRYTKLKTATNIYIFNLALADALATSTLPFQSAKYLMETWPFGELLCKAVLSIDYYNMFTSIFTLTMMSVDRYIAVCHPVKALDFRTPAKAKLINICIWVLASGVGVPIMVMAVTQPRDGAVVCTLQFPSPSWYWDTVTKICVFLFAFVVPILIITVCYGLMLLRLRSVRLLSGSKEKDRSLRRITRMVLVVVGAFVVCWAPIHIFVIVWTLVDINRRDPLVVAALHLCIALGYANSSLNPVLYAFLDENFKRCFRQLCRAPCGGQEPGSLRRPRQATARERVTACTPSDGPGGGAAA
T4 sequence (P35372 whole entry): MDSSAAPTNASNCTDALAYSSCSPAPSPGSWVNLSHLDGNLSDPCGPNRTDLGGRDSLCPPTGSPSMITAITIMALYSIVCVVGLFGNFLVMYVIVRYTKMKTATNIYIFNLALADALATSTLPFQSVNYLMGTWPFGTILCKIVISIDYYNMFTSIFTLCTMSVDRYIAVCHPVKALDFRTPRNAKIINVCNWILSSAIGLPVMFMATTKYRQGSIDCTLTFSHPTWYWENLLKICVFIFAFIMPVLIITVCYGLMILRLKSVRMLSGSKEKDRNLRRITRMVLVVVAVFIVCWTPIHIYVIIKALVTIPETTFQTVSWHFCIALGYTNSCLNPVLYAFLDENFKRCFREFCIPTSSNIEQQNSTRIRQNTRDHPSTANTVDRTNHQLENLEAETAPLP

Compound	inhibition at 10 µM (delta opioid receptor [1]) [%]	EC50 (delta opioid receptor [2]; [6]) [nM]	Ki (mu opioid receptor) [nM]	Ki (delta opioid receptor [3]) [nM]	GTPγS δ-opioid receptor Rel Efficacy (delta opioid receptor [2])	Ki (delta opioid receptor [4]) [nM]	GTPγS δ-opioid receptor % Inh @10 μM (delta opioid receptor [1]) [%]	Ki (mu opioid receptor; [7]) [nM]	Ki (delta opioid receptor [3]; [8]) [nM]	other results
COc1ccc(Oc2ncc(NC3CCCNC3)c(Oc3ccc(OC)cc3)n2)cc1 (stereo not drawn) [Cpd 2]	8.16	828	2440	7.61	–	–	–	–	–	–
[2-(3-Fluoro-phenoxy)-4-(4-methoxy-phenoxy)-pyrimidin-5-yl]-pyrrolidin-2-(S)-ylmethyl-amine [Cpd 46]	–	28	–	–	0.983	0.288	–	–	–	GTPγS δ-Rel Efficacy @200 nM (delta opioid receptor [2]): 0.770
COc1ccc(Oc2ncc(NC3CCCC(N)C3)c(Oc3ccc(OC)cc3)n2)cc1 (stereo not drawn) [Cpd 3]	12.8	–	–	–	1.106	–	19.733	1670	16.1	EC50 (delta opioid receptor [2]; GTPγS δ-opioid receptor EC50): 559 nM and 92 nM and 206 nM
N-{2-[2,4-Bis-(4-methoxy-phenoxy)-pyrimidin-5-ylamino]ethyl}-guanidine [Cpd 44]	–	1110	–	–	–	–	15.636	–	–	–
COc1ccc(Oc2nc(Sc3cccc(F)c3)ncc2NC[C@@H]2CCCN2)cc1 [Cpd 47]	–	193	–	–	1.079	0.739	–	–	–	GTPγS δ-Rel Efficacy @200 nM (delta opioid receptor [2]): 0.481
COc1ccc(Oc2ncc(NCC3CCCN3)c(Oc3ccc(OC)cc3)n2)cc1 (stereo not drawn) [Cpd 7]	–	221	–	–	–	–	20.645	2850	68.4	–
COc1ccc(Oc2nc(C#Cc3ccccc3)ncc2NC[C@@H]2CCCN2)cc1 [Cpd 4, [4-(4-Methoxy-phenoxy)-2-phenylethynyl-pyrimidin-5-yl]-pyrrolidin-2-(S)-ylmethyl-amine]	8.94	–	–	–	–	–	–	4420	16.3	EC50 (delta opioid receptor [2]; GTPγS δ-opioid receptor EC50): 1030 nM
COc1ccc(Oc2ncc(NC[C@@H]3CCCN3)c(Oc3ccc(OC)cc3)n2)cc1 [Cpd 1, [2,4-Bis-(4-methoxyphenoxy)pyrimidin-5-yl]pyrrolidin-2-(S)-ylmethylamine]	–	–	3880	5.9	–	–	–	–	–	EC50 ([5]; CHO-hMOR cell membranes, read-out: GTPγS μ-opioid receptor EC50): 84300 nM; inhibition at 10 µM ([5]; read-out: GTPγS μ-opioid receptor % Inh @10 μM): 19.5%
CCN(CC)C(=O)c1ccc(Oc2ncc(NC[C@@H]3CCCN3)c(Oc3ccc(OC)cc3)n2)cc1 [Cpd 5, N,N-Diethyl-4-{4-(4-methoxy-phenoxy)-5-[(pyrrolidin-2-(S)-ylmethyl)-amino]pyrimidin-2-yloxy}-benzamide]	26.4	2620	18.2	18.3	–	–	–	–	–	–
COc1ccc(Oc2nc(Oc3cccnc3)ncc2NC[C@@H]2CCCN2)cc1 [Cpd 45]	–	734	–	–	1.178	1.45	–	–	–	–
